From patent US20200369629A1, “BENZAMIDE COMPOUNDS AND THEIR USE AS HERBICIDES” (BASF SE, priority 2017, published 2020)

Columns and labels:
Format in all cases: in vivo
[1] = tested on: ALOMY (Alopecurus myosuroiedes); assay: Greenhouse pre-emergence test, test series 2, ALOMY; details: application rate 125 g/ha, scale 0 to 100 (100 = no emergence, 0 = no damage)
From the text: (§1) The seeds of the test plants were sown separately for each species. For the pre-emergence treatment, the active ingredients, which had been suspended or emulsified in water, were applied directly after sowing by means of finely distributing nozzles. The containers were irrigated gently to promote germination and growth and subsequently covered with transparent plastic hoods until the plants had rooted. This cover caused uniform germination of the test plants, unless this had been impaired by the active ingredients. For the post-emergence treatment, the test plants were first grown to a height of 3 to 15 cm, depending on the plant habit, and only then treated with the active ingredients which had been suspended or emulsified in water. For this purpose, the test plants were either sown directly and grown in the same containers, or they were first grown separately as seedlings and transplanted into the test containers a few days prior to treatment. Depending on the species, the plants were kept at 10-25° C. or 20-25° C., respectively. The test period extended over 2 to 4 weeks. During this time, the plants were tended, and their response to the individual treatments was evaluated. Evaluation was carried out using a scale from 0 to 100. 100 means no emergence of the plants, or complete destruction of at least the aerial moieties, and 0 means no damage, or normal course of growth. A good herbicidal activity is given at values of at least 70 and a very good herbicidal activity is given at values of at least 85. Test Series 2: At an application rate of 125 g/ha the following compounds were tested in pre-emergence tests against ALOMY (Alopecurus myosuroiedes)

[2] = tested on: SETFA (Setaria faberi); assay: Greenhouse pre-emergence test, test series 2, SETFA; details: application rate 125 g/ha, scale 0 to 100 (100 = no emergence, 0 = no damage)
From the text: as §1, with “SETFA (Setaria faberi)” for “ALOMY (Alopecurus myosuroiedes)”

[3] = tested on: AVEFA (Avena fatua); assay: Greenhouse post-emergence test, test series 1, AVEFA; details: application rate 62.5 g/ha, scale 0 to 100 (100 = complete destruction, 0 = no damage)
From the text: as §1, with “Series 1:” for “Series 2:”, “of 62.5” for “of 125”, “in post-emergence” for “in pre-emergence”, “tests against: AVEFA (Avena fatua)” for “tests against ALOMY (Alopecurus myosuroiedes)”

[4] = tested on: ALOMY (Alopecurus myosuroiedes); assay: Greenhouse post-emergence test, test series 1, ALOMY; details: application rate 62.5 g/ha, scale 0 to 100 (100 = complete destruction, 0 = no damage)
From the text: as §1, with “Series 1:” for “Series 2:”, “of 62.5” for “of 125”, “in post-emergence” for “in pre-emergence”, “tests against:” for “tests against”

Cc1c(NC(=O)N(C)CC(F)(F)F)c(Br)cc(F)c1C(=O)Nc1nnnn1C [Example 1, 4-bromo-6-fluoro-2-methyl-N-(1-methyltetrazol-5-yl)-3-[[methyl(2,2,2-trifluoroethyl)carbamoyl]amino]benzamide]
> 85%: pest or weed control at 125 g/ha [1] | pest or weed control at 125 g/ha [2] | pest or weed control at 62.5 g/ha [3] | pest or weed control at 62.5 g/ha [4]

CCN(CC(F)(F)F)C(=O)Nc1c(Br)cc(F)c(C(=O)Nc2nnnn2C)c1C [Example 2, 4-bromo-6-fluoro-2-methyl-N-(1-methyltetrazol-5-yl)-3-[[ethyl(2,2,2-trifluoroethyl)carbamoyl]amino]benzamide]
> 85%: pest or weed control at 125 g/ha [1] | pest or weed control at 125 g/ha [2] | pest or weed control at 62.5 g/ha [3] | pest or weed control at 62.5 g/ha [4]

Cc1c(NC(=O)N(CC(F)(F)F)CC(F)(F)F)c(Br)cc(F)c1C(=O)Nc1nnnn1C [Example 3]
> 85%: pest or weed control at 125 g/ha [1] | pest or weed control at 125 g/ha [2] | pest or weed control at 62.5 g/ha [3] | pest or weed control at 62.5 g/ha [4]

Cc1c(NC(=O)N(CC(F)(F)F)C2CC2)c(Br)cc(F)c1C(=O)Nc1nnnn1C [Example 6]
> 85%: pest or weed control at 125 g/ha [1] | pest or weed control at 125 g/ha [2] | pest or weed control at 62.5 g/ha [3] | pest or weed control at 62.5 g/ha [4]

Cn1nnnc1NC(=O)c1c(F)cc(Cl)c(NC(=O)N(CC(F)(F)F)C2CC2)c1Cl [Example 7]
> 85%: pest or weed control at 125 g/ha [1] | pest or weed control at 125 g/ha [2] | pest or weed control at 62.5 g/ha [3] | pest or weed control at 62.5 g/ha [4]

CCN(CC(F)(F)F)C(=O)Nc1c(Cl)cc(F)c(C(=O)Nc2nnnn2C)c1Cl [Example 8]
> 85%: pest or weed control at 125 g/ha [1] | pest or weed control at 125 g/ha [2] | pest or weed control at 62.5 g/ha [3]

CN(CC(F)(F)F)C(=O)Nc1c(Cl)cc(F)c(C(=O)Nc2nnnn2C)c1Cl [Example 9, 2,4-dichloro-6-fluoro-N-(1-methyltetrazol-5-yl)-3-[[methyl(2,2,2-trifluoroethyl)carbamoyl]amino]benzamide]
> 85%: pest or weed control at 125 g/ha [1] | pest or weed control at 62.5 g/ha [3] | pest or weed control at 62.5 g/ha [4]

CN(CC(F)(F)F)C(=O)Nc1c(C(F)(F)F)cc(F)c(C(=O)Nc2nnnn2C)c1Cl [Example 10]
> 85%: pest or weed control at 125 g/ha [1] | pest or weed control at 125 g/ha [2] | pest or weed control at 62.5 g/ha [3] | pest or weed control at 62.5 g/ha [4]

Cc1c(NC(=O)N(C)CC(F)(F)F)c(Cl)cc(F)c1C(=O)Nc1nnnn1C [Example 12]
> 85%: pest or weed control at 125 g/ha [1] | pest or weed control at 62.5 g/ha [3] | pest or weed control at 62.5 g/ha [4]

Cc1c(NC(=O)N(CC(F)(F)F)C(C)C)c(Cl)cc(F)c1C(=O)Nc1nnnn1C [Example 13]
> 85%: pest or weed control at 125 g/ha [1] | pest or weed control at 125 g/ha [2] | pest or weed control at 62.5 g/ha [3]

CC(C)N(CC(F)(F)F)C(=O)Nc1c(C(F)(F)F)cc(F)c(C(=O)Nc2nnnn2C)c1Cl [Example 14]
> 85%: pest or weed control at 125 g/ha [1] | pest or weed control at 125 g/ha [2] | pest or weed control at 62.5 g/ha [3] | pest or weed control at 62.5 g/ha [4]

CCN(CC(F)(F)F)C(=O)Nc1c(Cl)cc(F)c(C(=O)Nc2nnnn2C)c1C [Example 18]
> 85%: pest or weed control at 125 g/ha [1] | pest or weed control at 125 g/ha [2] | pest or weed control at 62.5 g/ha [3] | pest or weed control at 62.5 g/ha [4]

Cc1c(NC(=O)N(CC(F)(F)F)CC(F)(F)F)c(Cl)cc(F)c1C(=O)Nc1nnnn1C [Example 19]
> 85%: pest or weed control at 125 g/ha [1] | pest or weed control at 62.5 g/ha [3] | pest or weed control at 62.5 g/ha [4]

CC(C)N(CC(F)(F)F)C(=O)Nc1c(Cl)cc(F)c(C(=O)Nc2nnnn2C)c1Cl [Example 20]
> 85%: pest or weed control at 125 g/ha [1] | pest or weed control at 62.5 g/ha [3] | pest or weed control at 62.5 g/ha [4]

Cc1c(NC(=O)N(CC(F)(F)F)C2CC2)c(Cl)cc(F)c1C(=O)Nc1nnnn1C [Example 21]
> 85%: pest or weed control at 125 g/ha [1] | pest or weed control at 125 g/ha [2] | pest or weed control at 62.5 g/ha [3] | pest or weed control at 62.5 g/ha [4]

Cn1nnnc1NC(=O)c1c(F)cc(C(F)(F)F)c(NC(=O)N(CC(F)(F)F)CC(F)(F)F)c1Cl [Example 22]
> 85%: pest or weed control at 125 g/ha [1] | pest or weed control at 125 g/ha [2] | pest or weed control at 62.5 g/ha [3] | pest or weed control at 62.5 g/ha [4]
